# According to US8785614B2, “Aberrantly methylated genes in pancreatic cancer” (The Johns Hopkins University, priority 2003, dated 2014):
# Read-outs that look alike come from different tables or passages of the source.
# Tested on: four pancreatic cancer cell lines (AsPC1, Hs766T, MiaPaCa2, Panc1)
# Description: Mock-treated cells were cultured with the equivalent volume of PBS alone.
# Total RNA was isolated from cultured cells using TRIZOL reagent (invitrogen, Carlsbad, Calif.) and purified using RNeasy Mini Kit (Qiagen, Valencia, Calif.). First- and second-stranded cDNA was synthesized from 10 μg of total RNA using 17-dT) primer (Genset Corp., La Jolla, Calif.) and Superscript Choice system (Invitrogen). Labeled cRNA was synthesized from the purified cDNA by in vitro transcription reaction using the BioArray High Yield RNA Transcript Labeling Kit (Enzo Diagnostics, Inc., Farmingdale, N.Y.) at 37° C. for 6 h. The cRNA was fragmented at 94° C. for 35 min. in a fragmentation buffer [40 mM Tris-acetate @ pH 8.1, 100 mM potassium acestate, and 30 mM magnesium acetate]. The fragmented cRNA was then hybridized to the Human Genome U133A chips (Affymetrix, Santa Clara, Calif.) with 18462 unique gene/EST transcripts at 45° C. for 16 h. The washing and staining procedure was performed in the Affymetrix Fluidics Station according to the manufacturer's instructions. The probes were then scanned using a laser scanner, and signal intensity for each transcript (background-subtracted and adjusted for noise) was calculated using Microarray Suite Software 5.0 (Affymetrix).
# Fold change analysis of signal intensities obtained from oligonucleotide microarrays between the two treatment groups was performed using Data Mining software (Afrymetrix).
# The global changes in gene expression proxies induced by 5Aza-dC in four pancreatic cancer cell lines (AsPCl, Hs766T, MiaPaCa2, and Panel) were determined using the Afrymetrix U133 oligonucleotide microarrays with 18462 probes sets (transcripts) covering over 13000 full-length sequences of known genes.
smiles,measurement,setting,value
"Nc1ncn([C@H]2C[C@H](O)[C@@H](CO)O2)c(=O)n1 [5Aza-dC, 5 aza 2′ deoxycytidine]",changes in phenotypes during the treatment period,,did not result in apparent changes in their phenotypes
same,Induced by 5Aza-dC alone?,ADM,No
same,Induced by 5Aza-dC alone?,ANGPT1,No
same,Induced by 5Aza-dC alone?,AREG,No
same,Induced by 5Aza-dC alone?,ATF3,No
same,Induced by 5Aza-dC alone?,BIK,No
same,Induced by 5Aza-dC alone?,BIK (Table 3),No
same,Induced by 5Aza-dC alone?,BNIP3,Yes
same,Induced by 5Aza-dC alone?,BST2,Yes
same,Induced by 5Aza-dC alone?,CACNA1G,Yes
same,Induced by 5Aza-dC alone?,CAPN5,No
same,Induced by 5Aza-dC alone?,CASP5,No
same,Induced by 5Aza-dC alone?,CCNA1,No
same,Induced by 5Aza-dC alone?,CDC25A,No
same,Induced by 5Aza-dC alone?,CDH8,Yes
same,Induced by 5Aza-dC alone?,CDKN1C,Yes
same,Induced by 5Aza-dC alone?,CDKN2A (p16),No
same,Induced by 5Aza-dC alone?,CGR11,No
same,Induced by 5Aza-dC alone?,CHES1,No
same,Induced by 5Aza-dC alone?,CHFR,No
same,Induced by 5Aza-dC alone?,CLDN7,No
same,Induced by 5Aza-dC alone?,CLDN15,No
same,Induced by 5Aza-dC alone?,CRIP 1,No
same,Induced by 5Aza-dC alone?,CRLF1,No
same,Induced by 5Aza-dC alone?,CSF3,No
same,Induced by 5Aza-dC alone?,Cdc42 effector protein 2,No
same,Induced by 5Aza-dC alone?,DAPK2,No
same,Induced by 5Aza-dC alone?,DAZL,Yes
same,Induced by 5Aza-dC alone?,DEAD box RNA helicase (VASA),No
same,Induced by 5Aza-dC alone?,EDR1,Yes
same,Induced by 5Aza-dC alone?,EGR4,No
same,Induced by 5Aza-dC alone?,EREG,No
same,Induced by 5Aza-dC alone?,GADD45B,No
same,Induced by 5Aza-dC alone?,GAGE1,Yes
same,Induced by 5Aza-dC alone?,GAGE2 (Table 2),No
same,Induced by 5Aza-dC alone?,GAGE2 (Table 3),Yes
same,Induced by 5Aza-dC alone?,GAGE3,Yes
same,Induced by 5Aza-dC alone?,GAGE4,Yes
same,Induced by 5Aza-dC alone?,GAGE6,Yes
same,Induced by 5Aza-dC alone?,GAGE7B (Table 2),Yes
same,Induced by 5Aza-dC alone?,GAGE7B (Table 3),No
same,Induced by 5Aza-dC alone?,GAS1,No
same,Induced by 5Aza-dC alone?,"H1 historic family, member 2 (BC002649)",No
same,Induced by 5Aza-dC alone?,HEP27,No
same,Induced by 5Aza-dC alone?,HMOX1,No
same,Induced by 5Aza-dC alone?,HPSE,No
same,Induced by 5Aza-dC alone?,HSPA1A,No
same,Induced by 5Aza-dC alone?,ID2,No
same,Induced by 5Aza-dC alone?,ING1,No
same,Induced by 5Aza-dC alone?,ITM3,No
same,Induced by 5Aza-dC alone?,KLK12,Yes
same,Induced by 5Aza-dC alone?,KRT17,No
same,Induced by 5Aza-dC alone?,LHX2,Yes
same,Induced by 5Aza-dC alone?,LIPC,Yes
same,Induced by 5Aza-dC alone?,MAGE1,Yes
same,Induced by 5Aza-dC alone?,MAGEC1,No
same,Induced by 5Aza-dC alone?,MBD1,No
same,Induced by 5Aza-dC alone?,MLH1,No
same,Induced by 5Aza-dC alone?,MMP1,No
same,Induced by 5Aza-dC alone?,NGFR,Yes
same,Induced by 5Aza-dC alone?,NK4,Yes
same,Induced by 5Aza-dC alone?,NOTCH3,No
same,Induced by 5Aza-dC alone?,P-glycoprotein (mdr1),No
same,Induced by 5Aza-dC alone?,PAX6,Yes
same,Induced by 5Aza-dC alone?,PIG11,Yes
same,Induced by 5Aza-dC alone?,PRG1,No
same,Induced by 5Aza-dC alone?,S100A2,Yes
same,Induced by 5Aza-dC alone?,S100P,No
same,Induced by 5Aza-dC alone?,SALL1,Yes
same,Induced by 5Aza-dC alone?,SARP2,Yes
same,Induced by 5Aza-dC alone?,SGCE,No
same,Induced by 5Aza-dC alone?,SPANXA1,No
same,Induced by 5Aza-dC alone?,SPANXC,No
same,Induced by 5Aza-dC alone?,STAT3,No
same,Induced by 5Aza-dC alone?,STC1,Yes
same,Induced by 5Aza-dC alone?,TERT,No
same,Induced by 5Aza-dC alone?,UCHL1,Yes
same,Induced by 5Aza-dC alone?,UCPH,No
same,Induced by 5Aza-dC alone?,ULBP2,Yes
same,Induced by 5Aza-dC alone?,WISP2,No
same,Induced by 5Aza-dC alone?,WIT-1,Yes
same,Induced by 5Aza-dC alone?,WNT4,Yes
same,Induced by 5Aza-dC alone?,XAGE-1,Yes
same,Induced by 5Aza-dC alone?,activity-regulated cytoskeleton-associated protein (APC),No
same,transcripts specifically up-regulated by 5Aza-dC treatment in pancreatic cancers,after excluding those reactivated in HPDE,590 transcripts
same,Induced by 5Aza-dC alone?,aik3,No
same,Induced by 5Aza-dC alone?,basic fibroblast growth factor (FGF),No
same,Induced by 5Aza-dC alone?,candidate tumor suppressor gene 21 protein (AF040708),No
same,Induced by 5Aza-dC alone?,connective tissue growth factor (M92934),No
same,Induced by 5Aza-dC alone?,"cytovillin 2 (VIL2, ezrin)",No
same,Induced by 5Aza-dC alone?,"hemoglobin, alpha 1 (HBAI)",Yes
same,genes markedly up-regulated by 5Aza-dC treatment,in one or more pancreatic cancer cell lines but not in HPDE,475 genes
same,Induced by 5Aza-dC alone?,interleukin 8,No
same,Induced by 5Aza-dC alone?,junction adhesion molecule (AF154005),No
same,Induced by 5Aza-dC alone?,matrix metalloproteinase 8 (MMP3),No
same,Induced by 5Aza-dC alone?,nucleotide-binding site protein 1 (AF298547),No
same,Induced by 5Aza-dC alone?,period homolog 1 (PERI),Yes
same,Induced by 5Aza-dC alone?,prostate differentiation factor (AF003934),Yes
same,Induced by 5Aza-dC alone?,protease inhibitor 12 (neuroserpin) (SERPINU),No
same,average number of transcripts induced per cell line,range 116-251 transcripts,~200 transcripts
same,Induced by 5Aza-dC alone?,"synovial sarcoma, X breakpoint 1 (BC001003)",Yes
same,Induced by 5Aza-dC alone?,"synovial sarcoma, X breakpoint 2 (AF257500)",No
same,Induced by 5Aza-dC alone?,tissue factor pathway inhibitor-2 (L27624),No
same,Induced by 5Aza-dC alone?,transketolase-like protein (X91817),No
